Data reported in PubChem BioAssay AID179 (DTP/NCI, 2004).
Values joined by “and” are separate entries in the source; they are usually repeats but may differ in a detail not shown here. Equal entries are not always repeated. Active and inactive are the calls of the source.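 How the source made its calls: active means compounds giving half or more protection of infected cells from virus-caused growth loss, again on retest; inactive means the rest.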

System: CEM cells HIV-1 protection, formazan growth assay
Experiment: NCI AIDS Antiviral Assay
Conditions: for IC50: measured here: growth of uninfected CEM cells
In short: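 Protection of CEM cells against HIV-1 was scored from cell growth (soluble formazan) across five concentrations, with parallel uninfected cells. Lack of protection may reflect toxicity.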

SMILES | EC50 | IC50 | outcome
N#C/C(=C1\SCC(=O)N1c1ccccc1)c1nc2ccccc2[nH]1 | > 4.37 µM | > 4.37 µM | –
CCOC1c2cc(OC)c(OC)cc2-c2ccc3ccccc3c2N1C (centres undefined) | > 74.1 µM | 10.2 µM | –
O=C(CC(NC(=O)OCc1ccccc1)C(=O)NC1Cc2ccccc2C1=O)OCc1ccccc1 (centres undefined) | > 200 µM | > 200 µM | –
S=C(NNC1=NCCCCN1)Nc1ccccc1 | > 200 µM | 112 µM | –
O=C(n1c(=O)n(-c2ccc(Cl)cc2)c(=O)n1C(=O)C(Cl)(Cl)Cl)C(Cl)(Cl)Cl | > 200 µM | > 200 µM | –
O=[N+]([O-])C1=C(c2ccccc2)SC(Br)=C(c2ccccc2)S1 | > 100 µM | 0.813 µM | –
Cc1ccc(NC(=O)/C(=N/NC(=O)C[N+](C)(C)C)c2nc3ccccc3[nH]c2=O)cc1 | > 186 µM | 120 µM | –
COc1ccc(Sc2ccccc2[N+](=O)[O-])cc1 | – | – | inactive
Cc1ccc(Nc2cc(=O)[nH]c(=O)[nH]2)cc1CS | > 200 µM | 93.3 µM | –
C=C(C(=C)P(=S)(c1ccccc1)c1ccccc1)P(=S)(c1ccccc1)c1ccccc1 | > 26.9 µM | > 26.9 µM | –
CC(=O)SCC1OC(n2cc(C)c(=O)[nH]c2=O)CC1O (centres undefined) | > 200 µM | > 200 µM | –
CN(C)CCCCC1CCN(CC(=O)N2c3ccccc3NC(=O)c3ccccc32)CC1 | > 302 µM | 155 µM | –
COC(=O)c1ccc(COC(=O)N2C=CCC2C(=O)O)cc1 (centres undefined) | > 200 µM | > 200 µM | –
CC1=C(C(=O)Nc2ccc(Cl)c(C(=O)OC(C)C)c2)SCCO1 | 0.398 µM | 74.1 µM | –
CCc1cc(CCC(=O)Nc2c(C)cccc2C)[nH]n1 | > 912 µM | > 912 µM | –
COc1cc(C(=O)N(C)N(C)C)cc(OC)c1OC | > 200 µM | > 200 µM | –
CCCNC(=O)N(CCN(C)C)S(=O)(=O)c1ccc(Cl)cc1 | – | – | inactive
CCN(CC)CCCC(C)Nc1ccnc2cc(F)ccc12 (centres undefined) (tested in a mixture with another compound) | > 200 µM | > 200 µM | –
O=C(CCCl)NNC1=NCCN1 | > 200 µM | > 200 µM | –
O=[N+]([O-])c1ccccc1SS(=O)(=O)c1ccc(Cl)cc1 | > 79.4 µM | 44.7 µM | –
COC(=O)C(/C(=N\NC(N)=S)C(=O)Nc1ccccc1[N+](=O)[O-])c1cnc2ccccc2n1 (centres undefined) | > 145 µM | > 145 µM | –
COc1ccc(/C=N/NC(=S)Nc2ccccc2)cc1 | > 200 µM | > 200 µM | –
COc1cc(C2SCC(=O)N2c2ccc(-c3ccc(-n4c(-c5ccccc5)nc5ccccc5c4=O)cc3)cc2)cc(OC)c1OC (centres undefined) | > 200 µM | 14.8 µM | –

SMILES | EC50 | IC50 | outcome
N#CCCN(CCC#N)c1ccc(/C=C2\N=C(c3ccccc3)N(c3ccccc3)C2=O)cc1 | > 200 µM | 7.76 µM | –
CCOC1=C(c2ccccc2)N2CCCCC2O1 (centres undefined) | > 200 µM | 2.57 µM | –
Clc1nc(Nc2nc3ccccc3[nH]2)nc(Cl)c1Cc1ccccc1 | – | – | inactive
C[Si](C)(C)C1(Sc2ccccc2)SCCCS1 | – | – | inactive
C=C=C[P+](c1ccccc1)(c1ccccc1)c1ccccc1 | > 155 µM | 3.24 µM | –
O=c1[nH]c(=O)n(C2OC(CO)C(O)C2O)c2ncncc12 (centres undefined) | > 200 µM | > 200 µM | –
C[Si](C)(C)O/C=C1\CCCCC1=O | > 200 µM | > 200 µM | –
c1ccc(-c2nc3c(N4CCOCC4)ncnc3o2)cc1 | > 25.7 µM | > 25.7 µM | –
O=C(O)C1(CC(CCCN2CCCCC2)c2ccccc2)CCCC1 (centres undefined) | > 200 µM | 191 µM | –
CC(C)c1ccc(C=Nc2ccc(SSc3ccc(N=Cc4ccc(C(C)C)cc4)cc3)cc2)cc1 | > 200 µM | 29.5 µM | –
CCCC/C(C)=N/NC(N)=S | – | – | inactive
CN(C(=O)C1(C(=O)C=[N+]=[N-])CC1)c1ccccc1 | > 1020 µM | > 1020 µM | –
COC(=O)Nc1nc2ccc(SC)cc2c(=O)[nH]1 | > 355 µM | 12.6 µM | –
N#CC(/C=C/c1ccccc1)Nc1ccccc1CO (centres undefined) | > 27.5 µM | > 27.5 µM | –
CN(C)CC/C(=N\Nc1ccc(Cl)cc1)c1ccccc1 | – | – | inactive
CC12C(=O)OC(=O)C1(C)C1C=CC2O1 (centres undefined) | > 200 µM | 132 µM | –
Nc1c(C(=O)N/N=C/c2ccc(Cl)cc2)sc(=S)n1-c1ccccc1 | > 3.72 µM | > 3.72 µM | –
NCCCN1c2ccccc2Sc2ccc(Cl)cc21 | > 200 µM | 10.7 µM | –
Nc1nc(OCc2ccccc2)c2[nH]cnc2n1 | > 200 µM | 32.4 µM | –
O=C(O)CC1OC(=O)C(Br)=C1O (centres undefined) | > 1050 µM | > 1050 µM | –
CC1=C(Br)C(c2ccccc2)=Nc2ccccc2N1 | > 200 µM | 33.1 µM | –
Cc1ccc2[nH]c3c(c2c1)CCC/C3=N/N=C(N)N | > 20 µM | 3.02 µM | –
CCCCCN(CCCCC)/N=C/c1c2c(O)c3c(O)c(C)c4c(c3c1O)C(=O)C(C)(O/C=C/C(OC)C(C)C(OC(C)=O)C(C)C(O)C(C)C(O)C(C)/C=C/C=C(C)C(=O)N2)O4 (centres undefined) | > 200 µM | 8.32 µM | –

SMILES | EC50 | IC50 | outcome
O=C1c2ccccc2C(=O)c2cscc21 | > 77.6 µM | 18.6 µM | –
COc1ccc2nc3cc([N+](=O)[O-])ccc3c(NNc3ccc([N+](=O)[O-])cc3)c2c1 | > 200 µM | 50.1 µM | –
C(CCCCc1nnc(N2CCOCC2)o1)CCCc1nnc(N2CCOCC2)o1 | > 200 µM | 107 µM | –
C/C(C=C(C#N)C#N)=C\c1ccc(C)cc1 | > 1200 µM | > 1200 µM | –
C=CCc1cccc(/C=N\N=C(/N)NO)c1O | – | – | inactive
COC(=O)c1ccccc1CC1Cc2ccc3c(c2C1=O)CCCC3 (centres undefined) | > 200 µM | > 200 µM | –
COc1cc(O)c2c(c1)cc(O)c1c(=O)cc(C)oc12 | > 195 µM | 10.5 µM | –
Clc1cccc(NC2=NCCN=C(Nc3cccc(Cl)c3Cl)SS2)c1Cl | > 200 µM | 21.4 µM | –
CNCCOC(c1ccccc1)c1ccccc1C (centres undefined) | > 200 µM | 93.3 µM and 25.1 µM | –
COC(=O)c1cc(C(=CCCC(C)[C@H]2CCC3C4CC[C@@H]5CCCC[C@]5(C)C4CC[C@@]32C)c2cc(Cl)c(OC)c(C(=O)OC)c2)cc(Cl)c1OC (some centres undefined) | > 200 µM | 39.8 µM | –
CCO/C=N/C1=C(C#N)C(c2ccc(Cl)cc2)c2c(-c3ccccc3)nn(-c3ccccc3)c2O1 (centres undefined) | > 20 µM | 17 µM | –
Cc1ccccc1-c1nc2ccc(N)nc2nc1N | – | – | inactive
O=C(/N=C/c1c(O)c2ccccc2oc1=O)NC1CCCCC1 | > 41.7 µM | > 41.7 µM | –
CS(=O)(=O)NNS(=O)(=O)c1ccc(Cl)cc1 | > 126 µM | > 126 µM | –
O=C(NS(=O)(=O)Nc1ccccc1)OC1CCCC1 | > 200 µM | > 200 µM | –
CC1(C)C2C=C(CCN3CCOCC3)CC1C2 (centres undefined) | > 200 µM | > 200 µM | –
Cc1c(C)c(C)c(-n2c(=O)n(C)c(=O)n2-n2c(=O)n(C)c(=O)n2-c2c(C)c(C)c(C)c(C)c2C)c(C)c1C | > 100 µM | 6.31 µM | –
COC(=O)OCC1C=CC(n2cnc3c(Cl)ncnc32)CC1 (centres undefined) | > 200 µM | 11.5 µM | –
COC(=O)CC[C@@H](C)C1CCC2(C)c3ccc4c(c3C(=O)C[C@]12C)CC[C@H](OC(C)=O)C4(C)C (some centres undefined) | > 100 µM | > 100 µM | –
O=C(O)c1cc(=O)c2cc(C(=O)c3cccs3)c(Cl)c(Cl)c2o1 | > 9.55 µM | > 9.55 µM | –
COc1ccc(-c2nnc(-c3nsc4ccccc34)o2)cc1 | > 17 µM | > 17 µM | –
COC(=O)CC1(C(=O)OC)Nc2cc(Cl)c(Cl)cc2S(=O)(=O)N1O (centres undefined) | 69.2 µM | 91.2 µM | –
CC(C)CCCC(C)C1CCC2[C@@H]3CCC4C[C@@H](CCCC(c5cc(Cl)c(O)c(C(=O)O)c5)c5cc(Cl)c(O)c(C(=O)O)c5)CC[C@]4(C)C3CC[C@]12C (some centres undefined) | 18.2 µM | 309 µM | –

SMILES | EC50 | IC50 | outcome
COC(=O)CCC(=O)N1CC1C (centres undefined) | – | – | inactive
O=C1C2=C(SCCS2)C(=O)c2ccccc21 | > 42.7 µM | 0.676 µM | –
CN(C)CCC[N+]1=Nc2cccc3cccc(c23)N1 | – | – | inactive
COc1ccc(C(=O)CC(c2ccc(OC)c(OC)c2)c2c(O)c3ccccc3oc2=O)cc1OC (centres undefined) | > 200 µM | 117 µM | –
CC1(C)Oc2ccccc2[N+]([O-])=C1c1ccccc1 | > 141 µM | > 141 µM | –
CCOC(=O)C1c2[nH]c3ccccc3c2CCN1C(=O)c1ccco1 (centres undefined) | > 77.6 µM | > 77.6 µM | –
O=c1[nH]nc(Cc2ccc(Cl)cc2)n1O | > 200 µM | > 200 µM | –
O=P1(N2CCOCC2)OCCO1 | > 200 µM | > 200 µM | –
O=S(=O)(Nc1nc2ccccc2nc1N1CCCCCC1)c1ccccc1 | > 200 µM | 33.9 µM | –
CCOC(=O)C1Sc2ccccc2N=C1C (centres undefined) | > 30.9 µM | > 30.9 µM | –
CCOC(=O)c1c(-c2ccc(OC)cc2)c(C#N)c(=S)n(C2OC(COC(C)=O)C(OC(C)=O)C(OC(C)=O)C2OC(C)=O)c1C (centres undefined) | > 200 µM | 42.7 µM and 33.9 µM | –
COc1cc(/C=C\c2ccc(SC)cc2)cc(OC)c1OC | > 42.7 µM | 0.0724 µM | –
COC1=CC2(C=CC1=O)CCC(=O)O2 (centres undefined) | 10.5 µM | 174 µM | –
CN(C)c1ccc(/C=C(\C#N)c2cccc(Br)c2)cc1 | > 200 µM | 0.0631 µM | –
O=C1c2c(O)cc(O)cc2OC(c2ccc(O)cc2)C1C1C(=O)c2c(O)cc(O)cc2OC1c1ccc(O)cc1 (centres undefined) | > 200 µM | 46.8 µM | –
O=C(O)CSC1=NNC2(C(=O)N1)c1ccccc1-c1ccccc12 | > 200 µM | 58.9 µM | –
COC(=O)CC(=O)OC1C[C@@H]2CCC3C(C)(C)CCC[C@]3(C)C23CC[C@@]1(C)C3 (some centres undefined) | > 18.2 µM | > 18.2 µM | –
O=c1[nH]c(Nc2cccc(CC(F)(F)F)c2)nc2nc[nH]c12 | > 200 µM | 110 µM | –
N#CC(c1ccc(Cl)cc1)c1cccc(C(C#N)c2ccc(Cl)cc2)n1 (centres undefined) | > 661 µM | > 661 µM | –
CC(C)CC1CC2C(=O)N(c3ccccc3)C(=O)C2c2[nH]c3ccccc3c21 (centres undefined) | – | – | inactive
O=C(c1ccco1)N(C(=O)N1CCC(c2ccccc2)CC1)c1ccccc1 | > 200 µM | 29.5 µM | –
